“Also recorded” adds a separate entry of the source. Like-named read-outs stand apart in the source and are kept apart here.
What was measured:
[1] = test system: apoptotic hepatocytes; assay type: in vivo, mice; settings: data not shown
Protocol: Massive hepatic apoptosis can be induced within 1–2 hr in mice following intravenous injection of anti-Fas antibody (Ogasawara J. et al., 1993, Nature, 364, 806–809). […] Five-weeks-old male BALB/c mice were injected intravenously with 10 μg/animal of purified hamster anti-Fas mAb (Jo2, PharMingen, San Diego, Calif.) using the model described by Ogasawara et. al. (Nature, 1993, 364, 806–809). […] Injections were performed at different time intervals between 5 min–2 hr after antibody treatment. […] All animals were killed 2 hr after administration of antibody followed by organ removal. Heart, lung and liver were collected. Liver were sectioned transversely across the mid-portion of each lobe; organs were fixed in phosphate-buffered formalin for histological and immunohisto-chemical analyses.
Formalin fixed paraffin-embedded tissues were sectioned (5 μm) for staining with Hematoxylin/Eosin or other techniques. Endogenous peroxidase activity was blocked by incubation with 3% H2O2.
After washing with PBS, staining was developed with 3,3-diaminobenzidine tetrahydrochloride (DAB), and counterstained with Hematoxylin.
Liver sections from different lobes were used for detection of stained apoptotic cells compared to normal cells. Using light microscopy (×400), twenty fields of stained cells were evaluated. A ratio between the number of stained apoptotic hepatocytes versus stained normal hepatocytes in the field was defined. The stained cell's score (%) corresponds to the mean of the values for the twenty evaluated fields.
The percentage of apoptotic cells in the fields was estimated by evaluating parallel sections stained with Hematoxylin/Eosin. Analysis was performed blindly, since the pathologist performing the histological evaluation was unaware of the assignment of mice to the treatment or control group.
To quantitate the microscopic examination of the pharmacokinetics studies, the number of stained cells from 20 microscopic fields was counted.

[2] = within 5 minutes; rabbits; intravenous injection; cited from earlier work
[3] = test system: arterial thrombosis; settings: intravenous administration; carotid artery injury model; cited from earlier work
[4] = test system: apoptotic HeLa cells; settings: 250 μM; FACS
Protocol: Detection of binding to apoptotic HeLa cells was performed according to the following procedure: Cells were plated on tissue culture plates at a density of 5×10^6 cells/10 cm dish, and grown in their normal medium at 37° C. for 18 hr. The medium was replaced with a medium containing 2% FCS and 500 μM of dopamine. Eighteen hours later, floating cells that were identified as advanced apoptotic cells were collected and transferred to a 50 ml tube. To evaluate the level of apoptosis in the cultures, aliquots of 10^5 cells from the cultures were plated on 48 wells plate and stained with Hoechst 33342 dye (Molecular Probes) at a concentration of 1 mg/ml for 20 min (as described above). Non-treated cells served as control. For collecting the non-treated cells, the medium of the culture was aspirated and discarded, the cells were rinsed with growing medium and 2 ml of medium were added to the culture dish. The cells were detached from the culture dish using a cell scraper and separated to single cells by passage through a syringe with a 18G needle.
The reactions were incubated at room temperature for 40 minutes and then 400 μl of TBS was added and cells were collected by centrifugation at 3000×g for 3 minutes. Cells were washed in 1 ml of TBS and centrifuged as before and detecting of the bound compound was performed using 100 μl of TBS containing streptavidin conjugated to fluorescein (FITC) (016-090-084 from Jackson ImmunoResearch lab. Inc.). Incubation was for 15 minutes at room temperature in the dark. Thereafter, 400 μl of TBS was added and cells were centrifuged and washed again with 1 ml of TBS as before, re-suspended in 400 μl of TBS and then taken for FACS analysis. The FACS analysis was performed on Beckton-Dickinson cell sorter, using lysis II software. Excitation was at 488 nm and emission for FITC detection was at 535 nm and for PI detection at 585 nm.

[5] = test system: HUVEC cells; assay: Binding to endothelial HUVEC cells by FACS analysis; assay type: cell-based, Human; settings: 250 μM
Protocol: Binding detection was done using flow cytometric analysis to populations of HUVEC cells.
HUVEC (CC-2517, obtained from Clonetics, Walkersville, Md.) were grown on tissue culture flasks in Endothelial cell medium (EGM-2 Bulletkit, CC 3162, Clonetics). Mid-confluent cultures were harvested using Trypsine/EDTA solution (CC-5012, Clonetics). The cells were rinsed twice with TBS containing 2% BSA and kept on ice. Samples of 10^6 cells were tested for binding.
Cells were washed in 1 ml of TBS-BSA and centrifuged as before and then suspended in 100 μl of TBS-BSA containing streptavidin conjugated to fluorescein (FITC) for detection of the bound biotinylated compound. […] Thereafter, 400 μl of TBS-BSA were added and cells were entrifuged and re-suspended in 400 μl of TBS and taken for FACS analysis.

[6] = test system: apoptotic HeLa cells; assay: Modified APTT test with apoptotic HeLa cells as pro-coagulant surface; assay type: cell-based
Protocol: Apoptotic and control HeLa cells were prepared as described for the FACS analysis. Equal numbers of apoptotic or control non-treated cells (5×10^4) in a volume of […], were mixed with 100 μl of normal plasma, incubated for 1 min at 37° C. in a bath and then calcified by addition of 100 μl of 25 mM CaCl2, and clotting time was measured. Inhibition of the pro-coagulant activity of the apoptotic cells by NST500 compounds was tested following pre-incubation of apoptotic cells for 20 min. at room temperature with increased concentrations of the different NST 500 compounds.
The results can be seen in FIG. 4B.

[7] = test system: HUVEC cells; assay: Thrombin generation by HUVEC cells; assay type: cell-based, Human
From the text: In vivo, vascular endothelial cells are known to catalyze the formation of thrombin, due to expression of PS on their plasma membrane, at which pro-coagulant complexes are assembled (Van Hardee W L et al., 1994, Biochem J. 302, 305–312). Endothelial cells (EC) play an active role in determining the pro-coagulant/anti-coagulant balance in the vascular system (Gimborne M A et al., 1995, Ann. N. Y. Acad Sci 748, 122–132). Perturbed endothelial cells dramatically increase their pro-coagulant state. […] (FIG. 4D). When HUVEC cells (1.5×10^5) were incubated with the S-2366 substrate, thrombin generation was evident after a lag time of 12.5 minutes, which reflects the time required to assemble a functional complex on the HUVEC surface.
The effect of NST516 compound on HUVEC mediated-thrombin generation was studied.

[8] = test system: cardiolipin
From the text: The antiphospholipid antibody syndrom (APS) is a thrombophilic condition, characterized by a panel of antibodies that recognize anionic phospholipid-protein cofactor complexes. The antiphospholipid antibodies lupus anticoagulant and anticardiolipin, (present in high concentrations in SLE patients), are associated with several medical disorders including artherial and venous thrombosis, and recurrent pregnancy loss (Rand J H et al., 1998, Blood. 92, 1652–1660). […] Noncellular negatively charged phospholipid coated surface (cardiolipin) were chosen as a target for binding.
CL, (Diphosphatidylglycerol, c-1649, Sigma), prepared at 50 μg/ml in ethanol, was added to a 96 well plate (100 μl/well) using Immunolon 4 plates (Dynatech, Chantilly, Va.) and incubated for 16–20 hr for evaporation of ethanol. As control, wells were coated with ethanol only. The coated plates were washed 3 times with 100 μl of blocking buffer (PBS containing 0.3% gelatin (Sigma) and 1 mM EDTA) to block non specific binding. A 5 min incubation time was used between each wash. Normal plasma (Ilex, Italy, 84670-11) and plasma derived from SLE patients (either from Gradipore, Australia, LAHP-1, or from Biopool, Ventura, Calif.) were prepared according to the producer's instruction. The plasma was diluted 1/10 in the blocking buffer and was added to the CL and ethanol coated wells. […] Following 3 hr incubation, the plates were washed twice with PBS/BSA buffer (0.4% bovine serum albumine (BSA) in PBS). For detection of anti cardiolipin binding property of the tested plasma, the plates were incubated with a 1/10000 dilution of Peroxidase-conjugated affinity purified Goat anti-human IgG (Jackson Immunoresearch lab.) in PBS/BSA buffer for 1 hour. The plates were then washed 3 times with PBS/BSA buffer, and color reaction was developed by incubation with 100 ul of 0-phenylenedi-amine (OPD) dihydrochloride (Sigma p-7288) at a concentration of 0.4 mg/ml in 0.05 M phosphate citrate buffer, pH 5.0 supplemented with 4 ul of 30% hydrogen peroxide (Aldrich) for 10 ml mixture. To detect the level of NST500 compounds that were bound to CL, parallel wells were incubated with streptavidin conugated to OPD (SA-OPD, Jackson Immunoresearch lab.), that specifically recognize the biotinylated NST 500 compounds. The resulting colour changes were recorded at 405 nm using a Bio Tek Elx800 Eliza reader.

[9] = test system: HUVEC cells; assay: Cell-ELISA: binding of anti β2GPI antibodies to HUVEC cells; assay type: cell-based, Human
Protocol: Human β2GPI is a plasma phospholipid binding protein that is required for the binding of autoantibodies in sera from patients with APS to cardiolipin (McNeil H P et al., 1990 Proc. Natl. Acad. Sci. 87, 4120–4124). […] Anti β2GPI antibodies are present in sera of APS patients. […] For cell-ELISA tests, HUVEC cells (at 40,000/well), were plated on 96 well tissue culture plates (Nunc) in 200 μl of the culture medium, and allowed to grow for 18–22 hours. Following 2 washes with Hepes buffer (10 mM Hepes pH 8, 140 mM NaCl) and 5 min incubation with the culture medium, the wells were incubated for 3 hr with 10% of normal plasma in PBS (as a source of β2 GPI protein), supplemented with 1/500 of goat anti-human Apolipoprotein-H (β2 GPI) (Affinity biologicals, PA). Parallel control wells were incubated with 10% of normal plasma from Ilex. Serial dilutions of NST500 compounds were prepared in plasma/PBS. Washes and development were as described for anti CL ELISA.
As presented in FIG. 5B, in the presence of plasma and absence of NST500, HUVEC cells supported binding of anti β2GPI to their surface. However, displacement of anti β2GPI by NST500 compounds in this system occurred in a concentration dependent manner, similar to the results obtained with CL.

Substance | staining of apoptotic cells, exogenously added [1] | clearance [2] [%] | inhibition of arterial thrombosis [3] | binding to apoptotic HeLa cells relative to NST513 [4] [fold] | fraction of HUVEC cells labeled [5] [%] | higher FITC labeled HUVEC cells as compared to NST513 [5] [%] | increase in labeled HUVEC cells as compared to background of control cells without compound [5] [fold] | effect on clotting time of apoptotic cells ([6]; 2.5–2.2 μM) | increase of clotting time of apoptotic cells (factor) ([6]; 2.5–2.2 μM) [times] | clotting time of apoptotic cells ([6]; apoptotic cells alone 50 seconds, control cells 80 seconds) [s] | delay in thrombin generation [7] [min] | potency in inhibiting thrombin generation compared to NST513 [7] | thrombin generation by HUVEC cells, dose response [7] | potency relative to NST513 in inhibiting binding of SLE plasma to CL [8] [times] | displacement of plasma derived from SLE patients from cardiolipin ([8]; 1 μM) | lowering of binding of plasma derived from SLE patients to CL (factor) ([8]; 1 μM) | displacement of plasma derived from SLE patients from cardiolipin ([8]; 10 μM) | inhibition of binding of plasma derived from SLE patients to cardiolipin, dose response ([8]; 1–10 μM) | blocking of binding of anti β2 GPI antibodies to HUVEC cells [9] | inhibiting activity relative to NST513 [9]
Annexin V: 320 amino acid protein of the annexin family with Ca2+-dependent binding to anionic phospholipid membranes | same pattern of staining | 90 | effectively achieved | – | – | – | – | – | – | – | – | – | – | – | – | – | – | – | – | –
Myristate-KKVSFFCKNKEKKC-K(SEQ ID NO:2) (biotin) [NST516] | – | – | – | 3.5 | 83 | 70 | 8 | marked and dose dependent inhibition of clotting time; also recorded: dose-dependent effect | 4.5 | 225 | 5 | more potent compound in inhibiting thrombin generation | dose dependence inhibition of thrombin generation | 10 | marked displacement | 2 | almost complete displacement | marked displacement of IgG | dramatic and significant ability to block binding | two times better

Reference: patent US7196063B1, “Peptides and pharmaceutical compositions comprising same” (NST NeuroSurvival Technologies Ltd., priority 1999, dated 2007)
